These results are taken from PMC6312359, “Diisopropylphenyl-imidazole (DII): A new compound that exerts anthelmintic activity through novel molecular mechanisms” (PLoS Neglected Tropical Diseases, 2018).

“Also recorded” adds a separate entry of the source.

For one series, the system named is HEK-293 cells. The experiment in a line: Human cell toxicity, propidium iodide staining. Format: cell-based. The procedure: HEK-293 cells were cultured in DMEM medium (Gibco, USA) containing 10% fetal bovine serum (FBS) (Gibco, USA) and penicillin/streptomycin (Gibco, USA) at 37°C in an atmosphere containing 5% CO2. Before DII exposure, cells were dissociated using trypsin-EDTA and seeded in 96 multiwell plates at a density of 1x10^4 cells/ml. Cells were resuspended in fresh medium and different drug concentrations were subsequently added. After 8 h of incubation with 0, 200 and 600 μM of DII or 96 h of incubation with 0 and 100 μM of DII, cells were washed 3 times with PBS and propidium iodide (PI, final concentration 50 μg/ml) was added to stain dead cells. PI incubation was performed for 10 min in the dark at room temperature. DMSO (0–0.7%) and chloroquine (50–200 μM) were used as vehicle and positive controls, respectively. Images were acquired with a Nikon Eclipse TE 2000 fluorescence microscope. The number of stained cells was analyzed manually. At least 3 independent experiments were analyzed.

The subject of a further series is Drosophila melanogaster. The experiment in a line: Drosophila melanogaster larval viability. Conditions: 300–1200 μM in food, about 40 h of exposure. Format: in vivo. The procedure: All experiments were done at 25°C, under a 12:12 dark:light cycle using the w^1118 strain. Mated females were allowed to lay eggs for 4 h on apple juice egg laying plates supplemented with a thin layer of normal fly food. 2 h after the initiation of egg laying was considered time "0". 30–40 late L2 larvae (66 h after egg laying) were transferred from the plates to tubes containing 3 ml of fly food with 300, 600 and 1200 μM DII or the corresponding concentration of dimethylsulfoxide (DMSO, molecular biology grade, AppliChem). Under these conditions, larvae were exposed to DII until they left the food to pupariate about 40 h later. Larval viability was calculated as the percentage of larvae that reached the pupal stage.
To add drugs, fly food was melted and cooled to 60°C, 3 ml of food were dispensed in tubes and an appropriate volume of DMSO or drug was added and thoroughly mixed. Control tubes without DMSO and […] were prepared following the same procedure. The experiment was independently repeated at least three times.

For series [1], the system named is C. elegans. The experiment in a line: Worm cut preparation paralysis. To be noted: 10 min; DII 600 μM, levamisole 10 μM; listed as DII. Format: in vivo, Caenorhabditis elegans. How it is done: Cutworm assays were performed as previously described with slight modifications. Briefly, synchronized young adult animals were mounted in a glass microscope slide containing Artificial Perienteric Fluid (APF) (67 mM NaCl, 67 mM NaCH3COOH, 3 mM KCl, 15.7 mM MgCl2, 3 mM CaCl2 and 5 mM Tris, pH 7.6). 10 animals were severed between the middle and tail, approximately two-thirds from the anterior end. Worms were subsequently transferred to a multi-well plate containing APF or drug-APF and paralysis was evaluated after 10 minutes. All experiments were performed at least three times.

Series [2] concerns C. elegans. The experiment in a line: Body length measurements. Conditions: 600 μM, 2 h. The class given is in vivo, Caenorhabditis elegans. The procedure:
Vehicle (0.75% DMSO) was used as a control. After 2 h, images were acquired and body length was measured using FIJI-ImageJ software. At least three independent experiments were analyzed.

In series [3] the test system is C. elegans. The experiment in a line: Egg-laying assays. Format: in vivo, Caenorhabditis elegans. Conditions: gravid worms. The procedure:
Age-synchronized gravid worms were transferred to solid NGM plates containing different drug concentrations (100–300 μM). Each concentration was evaluated in triplicate and DMSO was used as a control. After 1 h, the number of laid eggs per worm was counted. This experiment was independently repeated three times.

Series [4] has as its system C. elegans. The experiment in a line: Toxicity at early developmental stages (eggs, hatching, developmental rate). Format: in vivo, Caenorhabditis elegans. How it is done:
Briefly, gravid worms were collected and exposed to an alkaline hypochlorite solution (0.5 M NaOH and 1% NaOCl) to destroy adult worm tissues (eggs are resistant to bleach due to their chitin eggshell). Eggs were subsequently isolated with a sterile 60% sucrose solution and seeded on 35 mm NGM plates containing DII (100, 300 and 600 μM) or DMSO as a control. Hatched animals were quantified after 48 h. The results were expressed as follows: Number of living animals x 100/ Total number of eggs seeded. This experiment was independently repeated three times.
For ovicidal assessment, isolated eggs were seeded in NGM plates containing DII (600 μM) and video-recorded for 12 h. An egg was considered as non-viable if no hatching was observed during the recorded time.
The number of animals at different developmental stages (L1-L3, L4, and adults) was counted at 24, 48 and 72 h. The results were expressed as the number of animals at a given stage x 100/ Total number of living worms at that time point. This experiment was independently repeated three times.

The test system of series [5] is C. elegans. The experiment in a line: Pharyngeal pumping. The class given is in vivo, Caenorhabditis elegans. To be noted: wild-type and unc-29 young adults, two hours of exposure; listed as DII. The procedure:
Supplementary file pntd.0007021.s006.tif: S6 Fig DII effects on pharyngeal pumping. Wild-type and unc-29 young adult worms (24 h past L4) were transferred to bacteria-seeded NGM plates containing different DII concentrations. After two hours of DII exposure, the number of contractions in the terminal bulb of the pharynx (pumps per minute) was counted using a stereomicroscope at 50x magnification. […] Bars represent the mean ± SEM from n = 20 animals per condition. Statistical differences compared to the non-treated condition (0 μM DII) within the same strain (ns: no statistically significant p>0.05, ***p<0.001). (TIF) Click here for additional data file.

The next series deals with E. coli OP50. The experiment in a line: OP50 growth in screening wells (qualitative). Format: cell-based, Escherichia coli. To be noted: 150 μg/ml, qualitative observation. An excerpt:
During the screening assays, we qualitatively noticed that OP50 growth was inhibited in wells containing MI. This effect was not observed with DII. To quantify this observation, we determined minimum inhibitory concentration (MIC) and minimum bactericidal concentration (MBC) of both compounds in E. coli cultures (Fig 2A). […] Similar values were obtained when we performed these assays on S. aureus, a Gram-positive bacteria (Fig 2A). […] As we are here screening for specific anthelmintic activity, we restricted our further analysis to compounds that appear to exert nematicidal action without obvious lethal effects on other organisms. Therefore, we focused our studies only on DII, relegating the evaluation of MI as a potential anthelmintic drug.

Series [6] relates to C. elegans. The experiment in a line: Larvicidal activity assays.
Description: Three concentrations of drugs were used (100, 300 and 600 μM) and each concentration was repeated in triplicate. After 24, 48 and 72 h alive worms were scored and the results were expressed as the percentage of living worms related to the initial number of L1 animals. This experiment was independently repeated three times.
Setting [7] is: eggs exposed to 600 μM, 24, 48 and 72 h.

Consider `CC(C)c1cccc(C(C)C)c1-n1ccnc1` [Compound 11], for which the cell viability entry with HEK-293 cells (0–600 μM, 8 h) is listed as “do not affect viability on HEK-293 cells”. Also, the cell viability result with HEK-293 cells (up to 100 μM, 96 h) is “do not affect cell viability”. The “larval viability (larvae that reached the pupal stage)” value in the series on Drosophila melanogaster is on record as “does not affect Drosophila larval viability”. In addition, the “paralysis in cut specimens” value with C. elegans [1] is listed as “unable to induce paralysis; also recorded: fail to produce significant paralysis”. In the series on C. elegans [2], the body length entry is “no significant changes”. Also, the “laid eggs in 1 h, fold more than controls” value in the series with C. elegans [3] (100 μM) is given as “did not produce an increase”. In the series with C. elegans [3] (300 μM, 1 h), the “reduction in the number of laid eggs” value is on record as 3.6 fold. In the series on C. elegans [4] (600 μM, within 12 hours, video recording), the eggs hatched was 100%. In the series with C. elegans [4] (setting [7]), the “developmental rate, unc-29 null mutants” value was “delays the development” and the “developmental rate, wild-type” value was “delays nematode development”. In the series on C. elegans [4] (eggs exposed to 100, 300 and 600 μM, 48 h), the “number of viable animals relative to eggs seeded” value is recorded as “significantly reduced”. Further, in the series on C. elegans [4] (eggs on DII-containing plates (600 μM), 72 h), the “survivors that were adults” value is “less than 5%”. Moreover, the pharyngeal pumping rate entry in the series with C. elegans [5] is “inhibits the pharyngeal pumping; also recorded: decreases pharyngeal pumping rate”. For the same compound, the “OP50 growth in screening wells” value with E. coli OP50 is on record as “not observed”. The “larvicidal effect on unc-29 null mutant larvae” value in the series with C. elegans [6] (600 μM) is on record as “as sensitive to the larvicidal effects of DII as the wild-type strain”. The “larvicidal effect on unc-38, unc-63, lev-8 and lev-1 larvae” value in the series with C. elegans [6] (600 μM, 24, 48 and 72 h) is “sensitive to DII”. Besides, the “larval viability, wild-type L1” value with C. elegans [6] (100, 300 and 600 μM, 24, 48 and 72 h) is listed as “significant decrease”.
